In the supplement of paper PMC10307832:

Experiments:
Assay in all cases: relative viability (nuclei count vs DMSO), 5 days (fraction); higher = more cells survive
Apatinib + Alpelisib = compound: N#CC1(c2ccc(NC(=O)c3cccnc3NCc3ccncc3)cc2)CCCC1 [Apatinib] + Cc1nc(NC(=O)N2CCC[C@H]2C(N)=O)sc1-c1ccnc(C(C)(C)C(F)(F)F)c1 [Alpelisib] (partner 2 µM)
Outline: (§1)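 Relative viability equals treated-well nuclei counts divided by vehicle-well nuclei counts. Counts came from 4× images of lung cancer cell lines grown in 1536-well plates for 5 days after pin-tool dosing on the day after seeding. Dosing used one drug alone or a fixed anchor-drug dose plus five library-drug doses (not always all listed) in √10 steps, and values are medians of duplicate plates.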

Metformin + Lapatinib = compound: CN(C)C(=N)NC(=N)N [Metformin] + CS(=O)(=O)CCNCc1ccc(-c2ccc3ncnc(Nc4ccc(OCc5cccc(F)c5)c(Cl)c4)c3c2)o1 [Lapatinib] (partner 2 µM)
Outline: as §1

Apatinib + Olaparib = compound: N#CC1(c2ccc(NC(=O)c3cccnc3NCc3ccncc3)cc2)CCCC1 [Apatinib] + O=C(c1cc(Cc2n[nH]c(=O)c3ccccc23)ccc1F)N1CCN(C(=O)C2CC2)CC1 [Olaparib] (partner 8 µM)
Outline: as §1

Apatinib + Tozasertib = compound: N#CC1(c2ccc(NC(=O)c3cccnc3NCc3ccncc3)cc2)CCCC1 [Apatinib] + Cc1cc(Nc2cc(N3CCN(C)CC3)nc(Sc3ccc(NC(=O)C4CC4)cc3)n2)n[nH]1 [Tozasertib] (partner 0.1 µM)
Outline: as §1

| Cell Line | relative viability (Apatinib + Alpelisib; first compound 0.08 µM) | relative viability (Apatinib + Alpelisib; first compound 0.253 µM) | relative viability (Apatinib + Alpelisib; first compound 0.8 µM) | relative viability (Apatinib + Alpelisib; first compound 2.53 µM) | relative viability (Apatinib + Alpelisib; first compound 8 µM) | relative viability (Metformin + Lapatinib; first compound 10 µM) | relative viability (Metformin + Lapatinib; first compound 31.62 µM) | relative viability (Metformin + Lapatinib; first compound 100 µM) | relative viability (Metformin + Lapatinib; first compound 316.23 µM) | relative viability (Metformin + Lapatinib; first compound 1000 µM) | relative viability (Apatinib + Olaparib; first compound 0.08 µM) | relative viability (Apatinib + Olaparib; first compound 0.253 µM) | relative viability (Apatinib + Olaparib; first compound 0.8 µM) | relative viability (Apatinib + Olaparib; first compound 2.53 µM) | relative viability (Apatinib + Olaparib; first compound 8 µM) | relative viability (Apatinib + Tozasertib; first compound 0.08 µM) | relative viability (Apatinib + Tozasertib; first compound 0.253 µM) | relative viability (Apatinib + Tozasertib; first compound 0.8 µM) | relative viability (Apatinib + Tozasertib; first compound 2.53 µM) | relative viability (Apatinib + Tozasertib; first compound 8 µM) |
| --- | --- | --- | --- | --- | --- | --- | --- | --- | --- | --- | --- | --- | --- | --- | --- | --- | --- | --- | --- | --- |
| NCI-H2347 | 0.943 | 1.02 | 1 | 1.02 | 0.944 | 0.582 | 0.881 | 1.04 | 0.832 | 1 | 0.634 | 0.485 | 0.583 | 0.517 | 0.493 | 0.504 | 0.651 | 0.604 | 0.428 | 0.466 |
| H3255 | 0.665 | 0.674 | 0.569 | 0.614 | 0.537 | 0.254 | 0.227 | 0.291 | 0.29 | 0.211 | 0.621 | 0.627 | 0.609 | 0.516 | 0.455 | 0.775 | 0.697 | 0.795 | 0.521 | 0.435 |
| LU99A | 0.565 | 0.618 | 0.457 | 0.49 | 0.461 | 0.92 | 0.904 | 0.837 | 0.864 | 0.985 | 0.286 | 0.269 | 0.276 | 0.252 | 0.207 | 0.325 | 0.317 | 0.276 | 0.231 | 0.203 |
| HCC-44 | 0.854 | 0.784 | 0.745 | 0.766 | 0.726 | 1.05 | 0.976 | 1.03 | 0.939 | 1.03 | 0.989 | 1 | 0.924 | 0.97 | 0.971 | 1.23 | 1.12 | 0.75 | 0.844 | 0.494 |
| EPLC-272H | 1.04 | 0.904 | 0.841 | 0.971 | 0.903 | 1.22 | 1.09 | 1.09 | 1.15 | 1.05 | 0.759 | 0.806 | 0.822 | 0.605 | 0.604 | 0.28 |  | 0.248 | 0.18 | 0.144 |
| EMC-BAC-2 | 0.759 | 0.785 | 0.76 | 0.751 | 0.678 | 0.886 | 0.951 | 0.891 | 0.843 | 0.925 | 0.57 | 0.507 | 0.44 | 0.363 | 0.319 | 0.334 | 0.307 | 0.245 | 0.229 | 0.194 |
| NCI-H1395 | 1.23 | 1.16 | 1.06 | 1.18 | 0.931 | 1.11 | 1.25 | 1.36 | 0.963 | 0.576 | 0.485 | 0.459 | 0.488 | 0.452 | 0.395 | 0.734 | 0.832 | 0.722 | 0.661 | 0.52 |
| NCI-H1355 | 0.884 | 0.823 | 0.816 | 0.804 | 0.67 | 0.884 | 0.955 | 0.946 | 0.982 | 1.06 | 0.787 | 0.798 | 0.745 | 0.647 | 0.616 | 0.576 | 0.611 | 0.474 | 0.33 | 0.217 |
| RERF-LC-KJ | 0.857 | 0.875 | 0.779 | 0.751 | 0.823 | 0.685 | 0.777 | 0.777 | 0.775 | 0.915 | 0.919 | 0.801 | 0.903 | 0.782 | 0.715 | 0.538 | 0.428 | 0.393 | 0.326 | 0.293 |
| NCI-H661 | 0.576 | 0.43 | 0.564 | 0.623 | 0.597 | 0.58 | 0.783 | 0.811 | 0.688 | 0.57 | 0.719 | 0.726 | 0.724 | 0.687 | 0.641 | 0.333 | 0.325 | 0.357 | 0.388 | 0.392 |
| SK-LU-1 | 1.15 | 1.15 | 0.979 | 0.906 | 0.692 | 0.632 | 0.88 | 0.844 | 0.694 | 0.812 | 0.503 | 0.453 | 0.435 | 0.549 | 0.436 | 0.337 | 0.436 | 0.28 | 0.275 | 0.243 |
| HARA | 1.07 | 0.837 | 0.852 | 0.735 | 0.795 | 1 | 1 | 1.14 | 1 | 0.957 | 0.761 | 0.582 | 0.848 |  | 0.706 | 0.119 | 0.129 | 0.121 | 0.0894 | 0.0993 |
| HCC-366 | 0.417 | 0.46 | 0.4 | 0.308 | 0.265 | 1.05 | 1.05 | 1 | 1.07 | 1.01 | 0.435 | 0.372 | 0.249 | 0.292 | 0.245 | 0.11 | 0.0735 | 0.0616 | 0.0574 | 0.0476 |
| HCC-827 | 0.999 | 0.991 | 0.831 | 0.825 | 0.469 |  | 0.216 | 0.185 | 0.232 | 0.18 | 0.68 | 0.628 | 0.644 | 0.54 | 0.561 | 0.381 | 0.388 | 0.43 | 0.413 | 0.311 |
| NCI-H2126 | 0.818 | 0.761 | 0.758 | 0.743 | 0.767 | 0.678 | 0.774 | 0.771 | 0.787 | 0.749 | 0.973 | 0.861 | 0.88 | 0.845 | 0.904 | 0.953 | 0.861 | 0.797 | 0.709 | 0.607 |
| ABC-1 |  | 1.2 | 1.1 | 1.01 | 1.1 | 1.53 | 1.12 | 1.4 | 1.59 | 0.851 |  | 0.957 | 0.626 | 0.769 | 0.638 |  | 0.177 | 0.165 | 0.178 | 0.191 |
